This note sets out measurements from US11999669B1, “Nitrogen activator stabilizer for reducing and protecting nitrogen fertilizer” (KING FAISAL UNIVERSITY, priority 2023, dated 2024).

The nature of the data set: Dissolution of ABT-PNB in water. Format: physicochemical. As for the experimental part:
Referring to Scheme 2 above, reaction of 0.2 mmol ethyl cyanoacetate with 0.2 mmol thiourea under MW-US condition for 5 min afforded compound 1. One pot reaction of 0.1 mmole of the compound (1) with 0.1 mmole of 2-nitro-6-cyanobenzoic acid (2) in boiling 2 mL ethanol under MW reaction condition for 10 min afforded 6-(imidazo[4,5-d]pyrimidin-2yl) benzoic acid derivative 3. Reflux reaction of the 0.01 mol compound 3 with 0.02 mole ethylchloroacetate in 10 mL acetone for 5 h afforded the ester 4. US promoted reaction of the 0.01 mol of the compound 4 was allowed to react with 0.01 mol of 4-(dimethylamino)butylchloride, thereby affording the desired fertilized ionic liquid ABT-PNB.

Structures are written as SMILES.

For the compound `CCOC(=O)CSc1nc2c(=O)n(CCCCN(C)C)c(-c3cccc([N+](=O)[O-])c3C(=O)O)nc2[nH]1` [ABT-PNB, 2-(1-(4-(dimethylamino)butyl)-8-((2-ethoxy-2-oxoethyl)thio)-6-oxo-6,9-dihydro-1H-purin-2-yl)-6-nitrobenzoic acid], the solubility in water entry is given as “easily dissolved in water”.
